Test results published in patent US20240131004A1, “FUNCTIONALIZED 1,3-BENZENE DIOLS AND THEIR METHOD OF USE FOR THE TREATMENT OF INFLAMMATION AND PAIN” (KANNALIFE SCIENCES, INC., priority 2021, published 2024).

Key:
[1] = tested on: dorsal root ganglion (DRG) cultures; assay: Alamar Blue cellular viability in DRG cultures, reversal of paclitaxel toxicity; assay type: cell-based, rat; conditions: 3 μM paclitaxel
Method: At the conclusion of each experiment, sister cultures to those assessed by image analysis were evaluated with either a fluorescent dye-based assays for neuronal viability (6-carboxyfluorescein diacetate, CFDA) or with viability dye Alamar Blue. The preferred dye was Alamar Blue as this assay of viability could be conducted and then the dye washed off the cultures for subsequent fixation and follow-up immunocytochemical assays. […] In addition, a portion of the reductive conversion of resazurin to the highly fluorescent resorufin in the Alamar Blue reagent is attributable to the action of mitochondrial reductases. Because of the need for enhanced sensitivity, the Alamar Blue assay was predominantly used for these studies. Similar results in assessing pharmacological responses were obtained with both assays (see Brenneman et al, 2019).
On every plate, wells without cells were used to provide a blank reading that was used to subtract background fluorescence. For the Alamar Blue viability assay, 10 ul of the dye was added directly to the culture well that contained 100 ul of nutrient medium (Ivanov et al., 2016). Incubation times with the dye ranged from 1-5 hrs., depending on the experimental goals. Fluorescence was measured at an excitation of 530 nm and an emission of 590 on a Cytofluor plate reader.
Referring to FIG. 1, cellular viability, as measured with the viability dye Alamar Blue, is shown with relative fluorescence units (RFU) in dorsal root ganglion (DRG) cultures after treatment with 3 μM paclitaxel for 8 hours followed by 16 hours treatment with various concentrations of KLS-13019. Reference lines are provided to depict the RFU levels for control cultures (medium dash) and cultures pre-treated only with 3 μM paclitaxel (dash-dot-dash) for eight hours. […] To confirm, all treated cultures were continuously exposed to paclitaxel throughout the 24-hour duration of the experiment. […] Each value is the mean of 6 determinations.

[2] = tested on: interleukin-6 (IL-6); assay: Interleukin-6 immunoreactive area in cell bodies and neurites of DRG neurons, paclitaxel reversal paradigm; assay type: cell-based, rat; conditions: 3 μM paclitaxel, DRG neurons
Method: (§1) The GPR55 antibody was obtained from abcam. […] The secondary antibodies were obtained from Life Technologies.
(§2) Referring to FIG. 3, responses of interleukin-6 (IL-6) immunoreactive (IR) areas (μ^2) in cell bodies (open circles) and neurites (closed circles) of rat DRG neurons from dissociated cultures are shown after pretreatment with 3 μM paclitaxel for 8 hours followed by 16 hours treatment with various concentrations of KLS -13019. Reference lines are provided to depict the average cell body IL-6 area (medium dash) and neurites IL-6 (dash-dot-dash) from control cultures. The zero-concentration data point on both curves depicts values for cultures treated only with 3 μM paclitaxel. […] To confirm, all treated cultures were continuously exposed to paclitaxel throughout the 24-hour duration of the experiment. […] Each value is the mean of 8 determinations. […] All assays were conducted by high content fluorescence imaging (Brenneman et al., 2018 and 2019).

[3] = tested on: GPR55; assay: Cell body GPR55 immunoreactive area in DRG neurons, paclitaxel reversal paradigm, high content imaging; assay type: cell-based, rat; conditions: 3 μM paclitaxel, DRG cultures
Method: as §1
Responses of cell body GPR55 immunoreactive areas (μ^2) of neurons from dorsal root ganglion (DRG) cultures are shown in FIG. 2 after pretreatment with 3 μM paclitaxel for 8 hours followed by 16 hours treatment with various concentrations of KLS-13019. Reference lines are provided to depict the average cell body GPR55 area for control cultures (medium dash) and that of cultures pre-treated only with 3 μM paclitaxel (dash-dot-dash) for eight hours. […] Each value is the mean of 8 determinations. […] All assays were conducted by high content fluorescence imaging (Brenneman et al., 2018 and 2019).

[4] = tested on: interleukin-1β (IL-1β); assay: Interleukin-1β immunoreactive area in cell bodies and neurites of DRG neurons, paclitaxel reversal paradigm; assay type: cell-based, rat; conditions: 3 μM paclitaxel, DRG neurons
Method: as §1
as §2, with “Responses” for “Referring to FIG. 3, responses”, “interleukin-1β (IL-1β)” for “interleukin-6 (IL-6)”, “shown in FIG. 4” for “shown”, “pre-treatment” for “pretreatment”, “KLS-13019.” for “KLS -13019.”, “IL-1β” for “IL-6”

[5] = tested on: interleukin-1β; conditions: 1 nM LPIA, after one hour of incubation, DRG neurons
Source text: (§3) Because of the recognized importance of sensory neurons in DRG to transmitting peripheral nociception (Krames, 2014) and the reported accumulation of paclitaxel in DRG from models of CIPN (Duggett et al., 2016), the preparation of choice for the in vitro studies to study protection and anti-inflammation was dissociated cultures from rat DRG. DRG cultures derived from embryonic day 18 rats were employed as the primary assay system to study KLS-13019-properties. In brief, DRG were obtained commercially through Brain Bits (Springfield, IL) and cultures prepared with slight modifications to methods previously described (Brenneman et al., 2019). Tissue was dissociated with a papain-based kit from Worthington Biochemical Corporation (Lakewood, NJ). The DRG cells were plated at low density (10,000 cells/well) in a 96-well format and maintained in serum-free medium consisting of Neurobasal Medium supplemented with B27, GlutaMAX (Gibco) and 25 ng/ml Nerve Growth Factor. Poly-D-lysine coated plates (BD Biosciences, Franklin Lakes, NJ) were employed for this culture system. Prior to the initiation of experiments between days 5 and 9 in vitro, a complete change of medium was performed in a working volume of 100 μL.
(§4) To assess all antibody-based assays, immunocytochemical methods were employed. The goals for these assays included: 1) to assess the immunoreactive area of our molecular targets (IL-1β, IL-6, GPR55, NLRPA3) with their respective primary antibodies and distinctively labeled secondary antibodies; and 2) to compare the relative responses in both neuronal cell bodies and neurites. Prior to fixation, growth medium was removed and the wells were rinsed one time with 100 μL of DPBS (37° C.). This warm rinse is particularly important to maintain structural stability of neurites. After removal of the DPBS, cultures were fixed for 20 min at room temperature with 50 μL/well of 3.5% formaldehyde (Sigma-Aldrich: 252549) in warm (37° C.) DPBS that contained 5.5 μg/mL of Hoechst 33342 dye (Invitrogen: H3570) to label cell nuclei. After removal of the fixative, the cultures were rinsed twice with 100 μL of DPBS and then a permeabilization/blocking buffer containing 5% normal goat serum and 0.3% triton-X100 in DPBS was added to the cultures for 10 min. After removal of the blocking buffer, the cultures were rinsed twice with 100 μL of DPBS and then primary antibodies were added for one-hour incubation at room temperature. Neurons were identified with antiserum to type III beta tubulin (tuj 1) to measure changes in all neuronal parameters. The primary antiserum employed was rabbit anti-rat obtained from Sigma-Aldrich (T2200) and used at 1:200 dilution. […]

[6] = tested on: interleukin-6; conditions: 1 nM LPIA, after one hour of incubation, DRG neurons
Source text: as §3, §4

[7] = tested on: GPR55; conditions: DRG neurons
Source text: as §3, §4

[8] = tested on: NLRP3; assay: Neuritic NLRP3 immunoreactive spot area in hippocampal neurons, LPIA reversal paradigm; assay type: cell-based, rat; conditions: 1 nM LPIA, hippocampal cultures
Source text: Tissue was dissociated with a papain-based kit from Worthington Biochemical Corporation (Lakewood, NJ).
To assess all antibody-based assays, immunocytochemical methods were employed. The goals for these assays included: 1) to assess the immunoreactive area of our molecular targets (IL-1β, IL-6, GPR55, NLRPA3) with their respective primary antibodies and distinctively labeled secondary antibodies; and 2) to compare the relative responses in both neuronal cell bodies and neurites. Prior to fixation, growth medium was removed and the wells were rinsed one time with 100 μL of DPBS (37° C.). This warm rinse is particularly important to maintain structural stability of neurites. After removal of the DPBS, cultures were fixed for 20 min at room temperature with 50 μL/well of 3.5% formaldehyde (Sigma-Aldrich: 252549) in warm (37° C.) DPBS that contained 5.5 μg/mL of Hoechst 33342 dye (Invitrogen: H3570) to label cell nuclei. After removal of the fixative, the cultures were rinsed twice with 100 μL of DPBS and then a permeabilization/blocking buffer containing 5% normal goat serum and 0.3% triton-X100 in DPBS was added to the cultures for 10 min. After removal of the blocking buffer, the cultures were rinsed twice with 100 μL of DPBS and then primary antibodies were added for one-hour incubation at room temperature. Neurons were identified with antiserum to type III beta tubulin (tuj 1) to measure changes in all neuronal parameters. The primary antiserum employed was rabbit anti-rat obtained from Sigma-Aldrich (T2200) and used at 1:200 dilution. The secondary was an Alexa Fluor 488-conjugated Fab fragment of goat anti-rabbit IgG obtained from Life Technologies (A11070) used at 1:600.

[9] = tested on: GPR55; assay: Neuritic GPR55 immunoreactive area in DRG cultures, 6 h co-treatment with LPIA; assay type: cell-based, rat; conditions: 1 nM LPIA, 6 hours, DRG cultures
Source text: as §3
To assess all antibody-based assays, immunocytochemical methods were employed. The goals for these assays included: 1) to assess the immunoreactive area of our molecular targets (IL-1β, IL-6, GPR55, NLRPA3) with their respective primary antibodies and distinctively labeled secondary antibodies; and 2) to compare the relative responses in both neuronal cell bodies and neurites. Prior to fixation, growth medium was removed and the wells were rinsed one time with 100 μL of DPBS (37° C.). This warm rinse is particularly important to maintain structural stability of neurites. After removal of the DPBS, cultures were fixed for 20 min at room temperature with 50 μL/well of 3.5% formaldehyde (Sigma-Aldrich: 252549) in warm (37° C.) DPBS that contained 5.5 μg/mL of Hoechst 33342 dye (Invitrogen: H3570) to label cell nuclei. […]

## CC(=O)O[C@H]1C(=O)[C@@]2(C)[C@H]([C@H](OC(=O)c3ccccc3)[C@]3(O)C[C@H](OC(=O)[C@H](O)[C@@H](NC(=O)c4ccccc4)c4ccccc4)C(C)=C1C3(C)C)[C@]1(OC(C)=O)CO[C@@H]1C[C@@H]2O [paclitaxel, reference compound]
[1]
  Effect of paclitaxel on cellular viability of DRG cultures: toxicity
[2]
  Effect of paclitaxel on IL-6 IR area in cell bodies and neurites: increases in IL-6 (IR) area
[3]
  Effect of paclitaxel on cell body GPR55 immunoreactive area: increases in GPR55 area
[4]
  Effect of paclitaxel on IL-1β IR area in cell bodies and neurites: increases in IL-1β (IR) area

## lysophosphatidylinositol arachidonate [LPIA]
[5]
  Effect on neuritic IL-1β IR area: significant increases
[6]
  Effect on neuritic IL-6 IR area: significant increases
[7]; preliminary concentration-effect studies
  Concentration producing a maximum effect on GPR55 IR area: 1 nM
[7]; LPIA, after one hour of incubation
  Effect on GPR55 IR area: increases in GPR55 IR area
[8]
  Effect of LPIA on neuritic NLRP3 spot area: increased NLRP3 spot area
[9]
  Effect of LPIA on neuritic GPR55 area: produced an increase in neuritic GPR55
